The values that follow come from article PMC10765884, “MC180295 is a highly potent and selective CDK9 inhibitor with preclinical in vitro and in vivo efficacy in cancer” (Clinical Epigenetics, 2024).

Where two headings read alike, the source gives them in different places.

One data set addresses T1, CDK9 (Homo sapiens, UniProt P50750).
T1 construct: purchased Reaction Biology Corp
Put plainly: CDK9 inhibitory activity of MC180295 and its enantiomers. The class given is biochemical. The conditions noted are these: Fig. S3E. Here is the method: CDK enzymatic assays were performed by Reaction Biology Corp. (Malvern, PA), using 10 µM ATP for determining MC180295 IC50 values for each CDK family member for which assays were available. Kinase enzymatic assays were also performed by Nanosyn (Santa Clara, CA), using microfluidic technology and MC180295 IC50 curves against 10 CDKs. Selectivity against CDK9 was confirmed for the enantiomers at Reaction Biology Corp. (Malvern, PA).

Data set [1] is described as follows: Liver microsome stability assay. The following applies: pH 7.4; for remaining at 1 h, 1 µM: male, CD-1, pooled liver microsomes, Mouse liver microsomes, without NADPH, 60 min, read-out: Stability minus NADPH % Remaining @ 60 min; for half-life at 1 µM: pooled liver microsomes, Mouse (CD-1, male) liver microsomes. In kind it is in vitro ADME, mouse. Here is the method: (§1) Assays were conducted in 96-deep well polypropylene plates. In duplicate, test compounds (1 µM) were incubated in 0.5 mL of 100 mM potassium phosphate buffer (pH 7.4), with 0.5 mg/ml pooled liver microsomes (Life Technologies: CD-1 male mice # MSMCPL; SD male rat # RTMCPL; mixed gender human # HMMCPL. BD Genetest male beagle dog; # 452,601; male marmoset # 452,340), 2 mM tetra sodium NADPH, and 3 mM MgCl2, for 60 min in a Labnet® Vortemp incubator at 37 °C, with gentle shaking. At five time points, 75 µL of reaction mixtures were transferred on ice to a 96-shallow well stop plate containing 225 µL acetonitrile with 0.1 µM propafenone. […] Standard curves for test compounds were generated using 5 concentrations (in duplicate) that were processed as above but with no incubation time. Stop plates were centrifuged at 2000xg for 10 min in a Sorvall ST 16 centrifuge, and 170 µL of the supernatants transferred to a Waters® Aquity UPLC (Ultra Performance Liquid Chromatography) 700 µL 96-well sample plate with cap mat. A Waters® Aquity UPLC BEH C18 1.7 µM, 2.1 × 50 mm column, at 40 °C, was used to fractionate 5 µL samples, using a 3 min linear 5 to 95% acetonitrile gradient in 0.1% formic acid with a 0.75 mL/min flow rate. In tandem with UPLC, compound concentrations were analyzed using a Waters® TQ MS mass spectrometer in electrospray-positive mode (source temperature 150 °C; desolvation temperature 450 °C; desolvation flow rate of 900 L/hr). Cone voltages, collision energies, and quantitation were optimized and determined using Waters® QuanOptimize software, with propafenone as an internal standard. MC180379:CV 34; CE 34; mrm 359.15 > 114.91; MC180390 CV 34; CE 28; mrm 359.15 > 114.92. GraphPad® Prism v 5.04 was used for nonlinear fitting of time course data to generate t1/2 and CLint (intrinsic clearance) values.

Data set [2] can be described thus: Liver microsome stability assay. The class given is in vitro ADME, dog. The following applies: pooled liver microsomes, pH 7.4; for remaining at 1 h, 1 µM: male, beagle, Dog liver microsomes, without NADPH, 60 min, read-out: Stability minus NADPH % Remaining @ 60 min; for half-life at 1 µM: Dog (beagle, male) liver microsomes. The method, then: as §1, with “BD Genetest male beagle dog; # 452,601; male marmoset # 452,340), 2 mM tetra sodium NADPH, and 3 mM MgCl2, for 60 min in a Labnet® Vortemp incubator at 37 °C, with gentle shaking.” left out

Data set [3] can be described thus: Liver microsome stability assay. In kind it is in vitro ADME, human. The conditions noted are these: both sexes, pooled liver microsomes, pH 7.4; for half-life at 1 µM: Human (mixed gender) liver microsomes; for remaining at 1 h, 1 µM: Human liver microsomes, without NADPH, 60 min, read-out: Stability minus NADPH % Remaining @ 60 min. The method, then: as §1, with “BD Genetest male beagle dog; # 452,601; male marmoset # 452,340), 2 mM tetra sodium NADPH, and 3 mM MgCl2, for 60 min in a Labnet® Vortemp incubator at 37 °C, with gentle shaking.” left out

Data set [4] in a line: Rat hepatocyte stability assay. In kind it is in vitro ADME. Also on record: dose or concentration left out as unconfirmed. The following applies: cryopreserved primary hepatocytes; Rat (Sprague-Dawley) hepatocytes, male. Here is the method: CLint (μL/min/10^6 cells) estimates were determined using a modified method of […] et al.. Cryopreserved rat (Sprague-Dawley) primary hepatocytes (4 male donors) (Life Tech product RTCS10) were rapidly thawed, diluted with Hank's balanced salt solution at 37 °C and centrifuged for 5 min at 100 × g. Resuspended cells were stained with 0.016% trypan blue and counted. Cell viability was > 80%. 0.25 mL of a 1 × 10^6 viable cells/ml cell suspension was added to 16-mm diameter wells of an uncoated polystyrene plate. The prewarmed plate was placed in a 37 °C incubator with 5% CO2 atmosphere, with 100 oscillations/min shaking. After 5 min, 0.25 mL of 2 μM test compound, in prewarmed HBSS, was added per well and mixed to start the reactions, with duplicate reactions per compound. Verapamil was used as a positive control, and cell-free reactions served as negative controls. At each time point (0, 5, 15, 30, 60, 90, and 120 min), 50 μL aliquots were transferred to a 96-well stop plate containing 200 μL/well acetonitrile: water (85:15), with 0.1% formic acid and 0.1 μM propafenone. The plate was centrifuged for 10 min at 2300 × g. 150 μL of the supernatant was transferred to a mass spectrometry sample plate. Samples were analyzed by UPLC/MS, as described in the microsome stability protocol. Results are expressed as t1/2 (min) and in vitro CLint (μL/min/10^6 cells).

T1 sequence (P50750 whole entry): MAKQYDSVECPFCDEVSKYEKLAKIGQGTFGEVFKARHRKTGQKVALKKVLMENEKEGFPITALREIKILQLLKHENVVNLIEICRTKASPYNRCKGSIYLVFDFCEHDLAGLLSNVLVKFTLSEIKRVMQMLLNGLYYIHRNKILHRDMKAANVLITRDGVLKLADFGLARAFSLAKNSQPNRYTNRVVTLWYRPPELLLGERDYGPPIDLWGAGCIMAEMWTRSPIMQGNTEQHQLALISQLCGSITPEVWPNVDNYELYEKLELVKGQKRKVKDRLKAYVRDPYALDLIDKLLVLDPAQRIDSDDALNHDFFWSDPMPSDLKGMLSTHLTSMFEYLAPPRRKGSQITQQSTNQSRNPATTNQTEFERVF
T1 sequence (O60563 whole entry partner): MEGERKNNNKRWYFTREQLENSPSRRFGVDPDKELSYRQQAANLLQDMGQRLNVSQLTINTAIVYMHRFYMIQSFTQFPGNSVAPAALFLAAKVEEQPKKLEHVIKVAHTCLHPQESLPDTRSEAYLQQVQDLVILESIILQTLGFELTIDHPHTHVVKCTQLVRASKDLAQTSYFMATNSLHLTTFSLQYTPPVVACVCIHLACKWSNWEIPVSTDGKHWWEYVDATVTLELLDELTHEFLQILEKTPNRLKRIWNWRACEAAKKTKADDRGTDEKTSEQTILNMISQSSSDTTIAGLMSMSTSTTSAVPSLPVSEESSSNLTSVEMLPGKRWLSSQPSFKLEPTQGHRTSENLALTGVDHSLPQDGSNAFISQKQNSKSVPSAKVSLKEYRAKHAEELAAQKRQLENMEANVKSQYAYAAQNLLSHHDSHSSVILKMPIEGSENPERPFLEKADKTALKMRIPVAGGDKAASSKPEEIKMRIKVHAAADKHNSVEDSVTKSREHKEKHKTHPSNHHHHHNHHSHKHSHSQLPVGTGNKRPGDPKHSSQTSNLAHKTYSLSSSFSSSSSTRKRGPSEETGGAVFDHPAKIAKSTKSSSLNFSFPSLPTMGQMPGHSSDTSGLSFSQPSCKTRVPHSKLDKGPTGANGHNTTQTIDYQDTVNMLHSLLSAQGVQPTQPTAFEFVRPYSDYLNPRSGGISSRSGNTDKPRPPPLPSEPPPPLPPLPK

Take `Nc1nc(N[C@H]2C[C@@H]3CC[C@H]2C3)sc1C(=O)c1ccccc1[N+](=O)[O-]` (relative stereo) [MC180295]: half-maximal inhibition against CDK9 (IC50) was put at 11 nM.

The compound `Nc1nc(N[C@@H]2C[C@H]3CC[C@@H]2C3)sc1C(=O)c1ccccc1[N+](=O)[O-]` [MC180379] yielded an IC50 on CDK9 of 11 nM. Further, the results for the amount remaining at 1 h, 1 µM in data set [1], in data set [2] and in data set [3] were 86%, 88% and 86%, respectively. Also, the half-life at 1 µM was found to be 3.2 min in data set [1], 36.2 min in data set [2] and 12.2 min in data set [3]. The compound further displayed a half-life in data set [4] of 4.1 min.

On CDK9, `Nc1nc(N[C@H]2C[C@@H]3CC[C@H]2C3)sc1C(=O)c1ccccc1[N+](=O)[O-]` [MC180380] returned an IC50 of 9 nM. The fraction remaining at 1 h, 1 µM in data set [1], in data set [2] and in data set [3] was 88% throughout. The half-life at 1 µM was 7.1 min in data set [1], 52.5 min in data set [2] and 21.1 min in data set [3]. In addition, in data set [4], the half-life was determined as 11.7 min.
